# Laboratory results reported in ChEMBL document CHEMBL1130840, “Synthesis and anti-HIV activities of urea-PETT analogs belonging to a new class of potent non-nucleoside HIV-1 reverse transcriptase inhibitors” (Bioorg Med Chem Lett, 1998).
# Key:
# [1] = biological target: Human immunodeficiency virus type 1 reverse transcriptase (Human immunodeficiency virus 1, UniProt Q72547); experiment: Inhibitory effect on wild type HIV- 1 reverse transcriptase using rCdG as template and dGTP as substrate.
# [2] = biological target: Human immunodeficiency virus type 1 reverse transcriptase (Human immunodeficiency virus 1, UniProt Q72547, L100I); experiment: Inhibitory effect on recombinant HIV- 1 reverse transcriptase which has a mutation Leu 100 to Ile 100 (clone 118)
# [3] = biological target: Human immunodeficiency virus type 1 reverse transcriptase (Human immunodeficiency virus 1, UniProt Q72547, Y181C); experiment: Inhibitory effect on recombinant HIV- 1 reverse transcriptase which has a mutation Tyr 181 to Cys 181 (clone 90)
# [4] = test system: Human immunodeficiency virus 1; experiment: (§1) Antiviral activity was determined against wild type HIV-1 in MT-4 cells infected with HIV-1 IIIB using an XTT assay; assay type: functional; details: Human immunodeficiency virus 1, MT4; read-out: ED50 (the source's name)
# [5] = test system: Human immunodeficiency virus 1; experiment: as §1; assay type: functional; details: Human immunodeficiency virus 1, MT4; read-out: ED50 (the source's name); remark: listed apart in the source
# [6] = test system: Human immunodeficiency virus 1; experiment: Antiviral activity was determined against HIV-1 (clone 90) in MT-4 cells infected with HIV-1 IIIB using an XTT assay; assay type: functional; details: Human immunodeficiency virus 1, MT4; read-out: ED50 (the source's name)
# [7] = test system: Human immunodeficiency virus 1; experiment: Antiviral activity was determined against HIV-1 (clone 118) in MT-4 cells infected with HIV-1 IIIB using an XTT assay; assay type: functional; details: Human immunodeficiency virus 1, MT4; read-out: ED50 (the source's name)
# MT4 [8] = experiment: Compound was tested for its inhibitory effect on HIV-1 in MT-4 cells; assay type: functional; details: Homo sapiens, read-out: ED50 (the source's name)
# MT4 [9] = experiment: Antiviral activity was determined against wild type HIV- I in MT-4 cells infected with HIV-1 IIIB using an XTT assay which contains 15% human AB serum.; assay type: functional; details: read-out: ED50 (the source's name)
Compound,IC50 [1] [nM],IC50 [2] [nM],IC50 [3] [nM],EC50 [4] [nM],EC50 [5] [nM],EC50 [6] [nM],EC50 [7] [nM],EC50 (MT4 [8]) [nM],EC50 (MT4 [9]) [nM]
COc1ccc(OC)c(CCNC(=O)Nc2ccc(Cl)cn2)c1F,3,140,140,90,11,3000,17000,,
S=C(NCCc1ccccc1)Nc1nccs1,,,,,,,,1300,
CCOc1ccc(OC)c(CCNC(=O)Nc2ccc(Cl)cn2)c1F,8,2500,500,,130,> 27000,14000,,
CCOc1ccc(F)c(CCNC(=O)Nc2ccc(Br)cn2)c1Cl,4,1700,240,,70,8000,15000,,
O=C(NCCc1c(F)cccc1F)Nc1ccc(Cl)cn1,,,,850,30,> 32000,32000,,
CCOc1ccc(F)c([C@H]2C[C@H]2NC(=O)Nc2ccc(Cl)cn2)c1F,1.5,80,15,30,8,270,750,,
CCOc1ccc(F)c([C@H]2C[C@H]2NC(=O)Nc2ccc(Cl)cn2)c1Cl,8,80,50,60,16,,100,,
O=C(Nc1ccc(Cl)cn1)N[C@@H]1C[C@@H]1c1c(F)cccc1F,2,30,120,,6,,,,10
CCOc1ccc(OC)c([C@H]2C[C@H]2NC(=O)Nc2ccc(Br)cn2)c1F,7,240,90,400,25,,,,
CCOc1ccc(Cl)c([C@H]2C[C@H]2NC(=O)Nc2ccc(Cl)cn2)c1F,1.5,50,20,100,8,100,100,,
CCOc1ccc(F)c([C@H]2C[C@H]2NC(=O)Nc2ccc(C#N)cn2)c1Cl,4,80,70,20,10,530,270,,
COc1ccc(OC)c([C@H]2C[C@H]2NC(=O)Nc2ccc(Cl)cn2)c1F,2,270,270,100,12,2700,1600,,
CN(C)c1ccc(F)c(CCNC(=O)Nc2ccc(Br)cn2)c1F,25,> 2500,1500,,500,> 25000,> 25000,,
COc1ccc(C(C)=O)c(F)c1CCNC(=O)Nc1ccc(Cl)cn1,100,1100,10000,,200,> 27000,> 27000,,
CCc1cc(NCc2nc3c(Cl)ccc(Cl)c3o2)c(O)nc1C [L-697661],,1600,15000,,65,> 11000,850,,
Cc1ccnc2c1NC(=O)c1cccnc1N2C1CC1 [NEVIRAPINE],,,,,150,22000,620,,
S=C(NCCc1ccccn1)Nc1ccc(Br)cn1 [TROVIRDINE],,700,3200,5000,20,> 5000,800,,
